Consider two compounds from patent US20060141620A1, “System and method for forming a cardiac tissue construct” (The Regents of the University of Michigan, priority 2004, published 2006).

For one test, the system named is cardioids. Conditions: prior publication US 2004/0132184; cited from earlier work.
The subject of test [1] is cardiac tissue constructs. Briefly: Inotropic response to ionic calcium (force vs calcium concentration of the bath). The test is classed as cell-based, rat. Conditions: explanted constructs, calcium reintroduced after EGTA removal. The method, then: The effect of the addition of exogenous calcium on contractility was investigated in the constructs according to the present invention. First, CM in the bath was replaced with calcium-free DMEM (Invitrogen). Known volumes of 100 mM ethylene glycol-bis(2-aminoethylether)-N,N,N′,N′-tetraacetic acid (EGTA) were then added to the bath to bind residual stores of calcium in the constructs. At each incremental addition of EGTA, twitch stimulation was applied and the force of contraction was measured. Removal of calcium was considered to be complete when the force of contraction was not detectable and no further EGTA was added. At this point, the calcium-free DMEM in the bath was aspirated and the construct was washed 3 times with fresh calcium-free DMEM. Known volumes of 100 mM calcium were then added and stimulated contraction forces were re-evaluated with each addition. This process was repeated until there was no further increase in the active force with the addition of calcium. The relationship of calcium concentration of the bath to force of contraction was then plotted.
The pCa1/2 of mammalian cardiac tissue has been reported in the range 5.9 to 7.0 (see Bers, Excitation-Contraction Coupling and Cardiac Contractile Force, Norwell: Kluwer Academic Publishers, 2002). […] The inotropic response to external calcium is an indicator of the presence of functional calcium handling machinery.

Test [2] has as its system cardiac tissue constructs. The method, then:
Turning now to FIG. 7, the response to epinephrine was studied in four constructs according to the present invention by adding known concentrations of epinephrine to the CM, with the constructs still attached to the force transducer. […] The concentration of epinephrine was calculated based on the typical dosage given to an adult for cardiac resuscitation. The spontaneous contractility of the constructs was recorded for a period of 5 minutes after the addition of epinephrine.

Turning to `[Ca+2]` [calcium], the response of cardioids result in the test on cardioids is given as “positive inotropy”. Further, in test [1], the pCa1/2 stood at 3.04.

Consider `CNC[C@H](O)c1ccc(O)c(O)c1` [epinephrine], for which the response of cardioids result in the test with cardioids was “positive chronotropy”. Moreover, the “duration of rapid contraction pattern (resembling tachyarrhythmia)” value in test [2] (0.2 μg/ml) fell in the range of 60 to 90 s. The “effect on spontaneous contractility” value in test [2] (0.2 μg/ml in culture bath, four constructs) is on record as “re-initiated spontaneous contractions”.
